Reference: paper PMC6154534, “New Benzimidazole-1,2,4-Triazole Hybrid Compounds: Synthesis, Anticandidal Activity and Cytotoxicity Evaluation” (Molecules : A Journal of Synthetic Chemistry and Natural …, 2017)
In brackets after ≈: the same amount, converted by molar mass.

Legend:
[1] = test system: Candida species; assay: Anticandidal broth microdilution, results summarised over all strains; format: cell-based; conditions: summary over all four Candida strains; for MIC50: Candida, read-out: MIC50 against Candida species
Experimental: (§1) Synthesized compounds (5a-5ad) were evaluated for anticandidal activity against C. albicans (ATCC 24433), C. krusei (ATCC 6258), C. parapsilosis (ATCC 22019) and C. [NT] 90030). MIC50 values were evaluated via fluorometric measurements, using resazurin solution [56, 57]. […] [NT] 90030). MIC readings were carried out twice for each chemical agent. The yeasts were maintained in RPMI after overnight incubation at 37 °C. The inocula of test microorganisms adjusted to match the turbidity of a MacFarland 0.5 standard tube as determined with a spectrophotometer and the final inoculum size was 0.5-2.5 × 10^5 cfu/mL for antifungal assay. Testing was carried out in RPMI at pH = 7 and the two-fold serial dilutions technique was applied. The last well on the microplates containing only inoculated broth was kept as controls and the last well with no growth of microorganism was recorded to represent the MIC50 expressed in μg/mL. For the antifungal assays, the compounds were dissolved in DMSO. […] The completed plates were incubated for 24 h. At the end of the incubation, resazurin (20 μg/mL) was added into each well to control whether the growth in wells. Then, plates were allowed to incubate for 2 h. MIC50 values were determined using a microplate reader at […].

[2] = test system: ergosterol biosynthesis in C. albicans (ATCC 24433); assay: Quantification of ergosterol level by LC-MS-MS; format: cell-based; conditions: 0.78, 1.56 and 3.12 µg/mL, 16 h, negative control = 100%
Text: The most of therapies, planned to treat fungal infections, target in the ergosterol biosynthesis pathway or its end product, ergosterol, a membrane sterol that is unique to fungi. It is the main sterol, and thus is essential for growth and normal membrane function of fungal cell. Besides serving as a bioregulator of membrane fluidity, asymmetry and integrity, it contributes to proper function of membrane-bound enzymes. […] Total intracellular sterols were extracted as reported by Breivik and Owades. […] Ergosterol standard (Product No. 45480, Sigma-Aldrich, Darmstadt, Germany) was used for quantification of ergosterol in both inhibitor-free (negative control) and inhibitor including samples. Ergosterol quantity in negative control samples was regarded as 100%. All concentrations were analyzed in quadruplicate, and the results were expressed as mean ± standard deviation (SD) (Figure 2).
Total intracellular sterols were extracted as reported by Breivik and Owades with slight modifications. […] The cultures were incubated for 16 h with shaking at 35 °C. […] Ergosterol quantity in negative control samples was regarded as 100%. All concentrations were analyzed in quadruplicate, and the results were expressed as mean ± standard deviation (SD).

[3] = test system: NIH/3T3 mouse embryonic fibroblast cell line (ATCC CRL1658); assay: MTT cytotoxicity assay; format: cell-based; conditions: NIH3T3, tested 800 to 0.78 µg/mL, read-out: IC50 on NIH/3T3 mouse embryonic fibroblast cell lines
Text: Toxicity is a key cause of failure at all steps of the new drug development process. The most part of safety-related problems occur at preclinical phases to predict preclinical safety liabilities earlier in the new drug development process. This approach allows to design and/or selection of better drug candidates that have more potentials to be marketed drugs. […] Cytotoxicities of selected compounds (5m, 5o, 5r, 5w, 5y, 5ab, and 5ad), displaying strong anticandidal activity and good predicted pharmacokinetics, were determined against NIH/3T3 mouse embryonic fibroblast cell lines (ATCC CRL1658).
Cytotoxicity was tested using the NIH/3T3 mouse embryonic fibroblast cell line (ATCC® CRL-1658™, London, UK). NIH/3T3 cells were incubated according to the supplier’s recommendations and they were seeded at 1 × 10^4 cells into each well of 96-well plates. MTT assay was performed as previously described. The compounds were tested in a concentration range of 800 µg/mL and 0.78 µg/mL concentrations. Percent inhibition was calculated for each concentration according to the formula below, and IC50 values were determined by plotting a concentration–response curve of inhibition percent versus compound concentrations tested.

[4] = test system: C. albicans (ATCC 24433); assay: Anticandidal broth microdilution (EUCAST EDef 7.1), resazurin fluorometric readout; format: cell-based; conditions: Candida albicans, ATCC24433; ATCC 24433, RPMI pH 7, 24 h incubation
Experimental: as §1

[5] = test system: C. glabrata (ATCC 90030); assay: as above; format: cell-based; conditions: Nakaseomyces glabratus, ATCC90030; ATCC 90030, RPMI pH 7, 24 h incubation
Experimental: as §1

[6] = test system: C. krusei (ATCC 6258); assay: as above; format: cell-based; conditions: Pichia kudriavzevii, ATCC6258; ATCC 6258, RPMI pH 7, 24 h incubation
Experimental: as §1

[7] = test system: C. parapsilosis (ATCC 22019); assay: as above; format: cell-based; conditions: Lodderomyces parapsilosis, ATCC22019; ATCC 22019, RPMI pH 7, 24 h incubation; read-out: MIC50 C. parapsilopsis
Experimental: as §1

[8] = test system: C. albicans; assay: Fluorescence microscopy (Live/Dead BacLight, SYTO-9 / PI); format: cell-based; conditions: 3.12 µg/mL (4 × MIC50), 2 h
Text: Ergosterol is the major fungal membrane sterol that regulates membrane fluidity, plasma membrane biogenesis and functions. […] It is known that propidium iodide (PI) enters only cells with damaged membranes, while SYTO-9 marks cells with both damaged and unaffected membranes. […] Consequently, fluorescence microscopic experiments supported the findings observed in inhibition of biosynthesis of ergosterol, which is a vital sterol regulating membrane functions. The Live/Dead BacLight viability kit from Molecular Probes, Inc. (Eugene, OR, USA) was used as reported by Nobman et al.. In this assay, the SYTO-9 and PI stains are in competition to bind to fungal nucleic acid. PI enters only cells with damaged membranes, while SYTO-9 marks cells with both damaged and unaffected membranes. A culture of C. albicans was grownup to mid-log phase in 20 mL of SDB. Twenty milliliters of the yeast culture was divided into two equal parts. […] The second culture was incubated under same conditions without a compound. Both cultures were centrifuged at 3000 rpm for 10 min. and then cell pellets were incubated with PI and SYTO9 at 40 °C for 30 min. The stained yeast cultures were observed under a fluorescence microscope (Carl-Zeis, Axio Scope.A1, Göttingen, Germany) using 100× oil-immersion objective.

MIC50 [1] [µg/mL] | MIC50 [4] [µg/mL] | MIC50 [5] [µg/mL] | MIC50 [6] [µg/mL] | MIC50 [7] [µg/mL] | melting point [°C] | MIC50 against Candida species [1] [µg/mL] | SMILES | level of ergosterol in C. albicans (in words) [2] | IC50 [3] [µg/mL] | effect on C. albicans cell membrane (PI penetration) [8]
0.78 to 1.56 (≈ 1.58 to 3.16 µM) | 0.78 (≈ 1.58 µM) | 0.78 (≈ 1.58 µM) | 1.56 (≈ 3.16 µM) | 0.78 (≈ 1.58 µM) | 234.2 | – | CCn1c(SCC(=O)c2ccc(F)cc2F)nnc1-c1ccc(-c2nc3ccc(F)cc3[nH]2)cc1 [Compound 5ad, 1-(2,4-Difluorophenyl)-2-((4-ethyl-5-(4-(6-fluoro-1H-benzimidazol-2-yl)phenyl)-4H-1,2,4-triazol-3-yl)thio)ethan-1-one] | significantly decreased the level of ergosterol at all tested concentrations | 120 ± 4.39 (≈ 242 µM) | –
0.78 to 1.56 (≈ 1.63 to 3.26 µM) | 0.78 (≈ 1.63 µM) | 1.56 (≈ 3.26 µM) | 0.78 (≈ 1.63 µM) | 0.78 (≈ 1.63 µM) | 274.5 | – | Cn1c(SCC(=O)c2ccc(F)cc2)nnc1-c1ccc(-c2nc3ccc(Cl)cc3[nH]2)cc1 [Compound 5m, 2-((5-(4-(6-Chloro-1H-benzimidazol-2-yl)phenyl)-4-methyl-4H-1,2,4-triazol-3-yl)thio)-1-(4-fluorophenyl)ethan-1-one] | – | 17.4 ± 0.89 (≈ 36.4 µM) | –
0.78 (≈ 1.69 µM) | 0.78 (≈ 1.69 µM) | 0.78 (≈ 1.69 µM) | 0.78 (≈ 1.69 µM) | 0.78 (≈ 1.69 µM) | – | 0.78 to 1.56 | Cn1c(SCC(=O)c2ccc(F)cc2)nnc1-c1ccc(-c2nc3ccc(F)cc3[nH]2)cc1 [Compound 5w, 2-((5-(4-(6-Fluoro-1H-benzimidazol-2-yl)phenyl)-4-methyl-4H-1,2,4-triazol-3-yl)thio)-1-(4-fluorophenyl)ethan-1-one] | significantly decreased the level of ergosterol at all tested concentrations | 65.3 ± 2.94 (≈ 141 µM) | membrane damaging effect
0.78 to 1.56 (≈ 1.63 to 3.25 µM) | 0.78 (≈ 1.63 µM) | 1.56 (≈ 3.25 µM) | 0.78 (≈ 1.63 µM) | 1.56 (≈ 3.25 µM) | 263.2 | – | Cn1c(SCC(=O)c2ccc(F)cc2F)nnc1-c1ccc(-c2nc3ccc(F)cc3[nH]2)cc1 [Compound 5y, 1-(2,4-Difluorophenyl)-2-((5-(4-(6-fluoro-1H-benzimidazol-2-yl)phenyl)-4-methyl-4H-1,2,4-triazol-3-yl)thio)ethan-1-one] | – | 11.1 ± 0.57 (≈ 23.2 µM) | –
